How the values were obtained:
[1] = biological target: T1, angiotensin converter enzyme (ACE) (Rattus norvegicus, UniProt P47820); assay: Plasmatic ACE activity, fluorimetric method with Hip-His-Leu substrate; type: biochemical, Wistar rats; conditions: 5 mM enalaprilate, assay specificity control
T1 construct: from tissue; host or cells: plasma of Wistar rats
T1 sequence (P47820 36-1238 limits assumed): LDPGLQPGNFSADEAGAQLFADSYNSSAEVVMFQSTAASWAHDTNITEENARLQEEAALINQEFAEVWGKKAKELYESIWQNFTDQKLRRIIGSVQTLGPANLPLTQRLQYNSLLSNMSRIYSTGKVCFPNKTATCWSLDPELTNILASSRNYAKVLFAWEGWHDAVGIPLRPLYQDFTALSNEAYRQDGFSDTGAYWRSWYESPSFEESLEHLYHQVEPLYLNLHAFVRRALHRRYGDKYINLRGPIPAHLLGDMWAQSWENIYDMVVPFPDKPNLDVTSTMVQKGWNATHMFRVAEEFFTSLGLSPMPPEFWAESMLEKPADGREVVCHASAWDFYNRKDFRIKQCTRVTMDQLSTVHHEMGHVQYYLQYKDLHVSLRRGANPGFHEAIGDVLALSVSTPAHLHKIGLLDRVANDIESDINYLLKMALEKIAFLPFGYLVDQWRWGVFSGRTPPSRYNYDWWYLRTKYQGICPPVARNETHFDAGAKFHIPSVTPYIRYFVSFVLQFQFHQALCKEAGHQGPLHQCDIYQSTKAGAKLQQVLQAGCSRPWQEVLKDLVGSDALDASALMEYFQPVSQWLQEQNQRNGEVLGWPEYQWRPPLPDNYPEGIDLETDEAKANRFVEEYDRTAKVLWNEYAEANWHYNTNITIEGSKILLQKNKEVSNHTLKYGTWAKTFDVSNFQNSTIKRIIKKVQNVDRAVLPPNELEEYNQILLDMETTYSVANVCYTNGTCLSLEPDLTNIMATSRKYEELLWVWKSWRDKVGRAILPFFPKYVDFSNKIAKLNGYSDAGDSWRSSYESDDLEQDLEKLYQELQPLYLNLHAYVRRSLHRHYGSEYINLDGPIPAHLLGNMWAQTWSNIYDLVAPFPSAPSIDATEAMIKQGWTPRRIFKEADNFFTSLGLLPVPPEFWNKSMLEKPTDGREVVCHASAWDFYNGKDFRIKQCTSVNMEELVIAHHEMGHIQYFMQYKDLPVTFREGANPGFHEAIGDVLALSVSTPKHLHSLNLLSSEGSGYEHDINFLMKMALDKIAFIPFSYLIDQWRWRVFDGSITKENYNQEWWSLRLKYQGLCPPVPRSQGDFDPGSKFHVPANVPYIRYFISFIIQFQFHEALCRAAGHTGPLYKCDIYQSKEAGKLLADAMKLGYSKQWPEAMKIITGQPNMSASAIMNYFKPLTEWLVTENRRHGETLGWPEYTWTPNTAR
Method: The plasmatic activity of ACE was measured by the fluorimetric method using Hip-His-Leu as substrate, as previously described (Santos, R. A. S. et al., Hypertension, 7:244-52, (1985)). Plasma aliquots (10 μL) of Wistar rats were incubated with a […] solution containing a 1 mM substrate (Hip-His-Leu) and 0.4 M of sodium borate, 0.9 M NaCl (pH=8.3) for 15 minutes at 37° C. The reaction was halted by adding 1.2 mL of NaOH at 0.34 M and […] of orthoftaldehyde (20 mg/mL in methanol). After 10 minutes at environment temperature, […] of HCl at 3 N was added. Later on, after a 5-minute 800×g centrifugation, the floating solution fluorescence was measured (a 365 nm excitation and a 495 nm emission). The blank was prepared by inverting the addition order of plasma and NaOH. A 0.5 to 20 nmol curve, containing the product (His-Leu) resulting of the substrate break (Hip-His-Leu) by ACE plasmatic activity, was prepared in each assay. In order to test the inhibition effect of ACE by the PEPTIDEs Ang-(1-7) and Ala^1-Ang-(1-7), 3.3×10^−7 or 3.3×10^−6 M of each PEPTIDE was added before the plasma addition. […] The percentage of enzymatic activity inhibition was estimated in function of the maximum activity obtained.

[2] = biological target: T2, AT2 receptor (Homo sapiens, UniProt P50052); conditions: Jankowski et al. 2007; cited from earlier work
T2 sequence (P50052 1-363): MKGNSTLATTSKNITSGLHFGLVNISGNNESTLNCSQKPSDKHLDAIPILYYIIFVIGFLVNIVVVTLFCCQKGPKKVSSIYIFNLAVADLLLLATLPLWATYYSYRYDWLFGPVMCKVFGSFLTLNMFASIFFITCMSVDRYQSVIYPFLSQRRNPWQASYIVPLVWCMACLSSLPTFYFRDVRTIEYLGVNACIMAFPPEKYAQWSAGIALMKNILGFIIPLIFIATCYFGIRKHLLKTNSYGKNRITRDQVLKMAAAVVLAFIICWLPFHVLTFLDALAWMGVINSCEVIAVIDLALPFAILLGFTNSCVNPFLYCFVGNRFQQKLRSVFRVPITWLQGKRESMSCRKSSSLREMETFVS

[3] = system: wild-type mice; conditions: Jankowski et al. 2007; cited from earlier work
[4] = biological target: T3, AT1 receptor (Homo sapiens, UniProt P30556); conditions: Jankowski et al. 2007; cited from earlier work
T3 sequence (P30556 1-359): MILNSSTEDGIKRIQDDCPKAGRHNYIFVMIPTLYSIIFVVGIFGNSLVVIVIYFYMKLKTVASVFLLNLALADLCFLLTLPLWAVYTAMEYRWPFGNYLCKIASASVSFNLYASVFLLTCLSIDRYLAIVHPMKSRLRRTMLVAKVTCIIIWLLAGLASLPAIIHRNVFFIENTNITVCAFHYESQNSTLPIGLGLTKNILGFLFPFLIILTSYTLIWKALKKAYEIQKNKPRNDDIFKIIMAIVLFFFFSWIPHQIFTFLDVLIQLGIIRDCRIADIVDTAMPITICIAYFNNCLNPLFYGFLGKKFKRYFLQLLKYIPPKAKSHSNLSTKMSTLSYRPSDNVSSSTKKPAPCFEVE

[5] = biological target: Mas receptor; conditions: Dong et al., Cell 2001; read-out: EC50, affinity with Mas receptor; cited from earlier work

For `C[C@H](N[C@@H](CCc1ccccc1)C(=O)O)C(=O)N1CCC[C@H]1C(=O)O` [enalaprilate], the “inhibition of the ACE activity” value [1] was 98%.

In the case of “Ala^1-Arg^2-Val^3-Tyr^4-Ile^5-His^6-Pro^7-Phe^8 (ARVYIHPF; Angiotensin-2; UniProt P01019 25-32, looked up, variant D1A) [Ala^1-Ang II]”, the “affinity with AT2 receptor compared with Ang II” value [2] is listed as “does not substantially differ from Ang II”, the “pressor activity compared with Ang II” value [3] is listed as “only a fraction of the Ang II activity” and the “affinity with AT1 receptor compared with Ang II” value [4] is listed as “does not substantially differ from Ang II”.

For “NPFF: one PEPTIDE called NPFF, which had shown affinity with the Mas receptor, though reasonably feeble”, the EC50 [5] is listed as about 400 nM.

— patent US9974825B2, “Peptides Des-[Asp1]-[Ala1], angiotensin-(1-7) agonist and pharmaceutical compositions for the treatment of diseases” (UNIVERSIDADE FEDERAL DE MINAS GERAIS, priority 2008, dated 2018)
